“Also recorded” adds a separate entry of the source.
What was measured:
[1] = test system: HT-1080 human fibrosarcoma cell line; assay: Cytotoxicity on the cells culture HT1080; assay type: cell-based; conditions: TiO2 or SiO2 600 mcg/ml, cyclodextrin 5000 mcg/ml, Doxorubicin 200 mcg/ml
Protocol: In these studies cells (5×10^4) were seeded in 6-well plates and cultured in RPMI-1640 medium containing 10% fetal bovine serum. The cultures were incubated for 2 hours in CO2 thermostate at 37° C. After the preincubation period the medium was removed, the cells were washed with physiological saline (2×1 ml 0.9% NaCl) and exposed to testing samples applying various concentrations for 60 min. After removing the test compounds fresh RPMI 1640 medium containing 10% FBS was added and the cultures were incubated for further 24 hours at 37° C. in humidified thermostate (5% CO2). At the end of the posttreatment period the medium as supernatants of the cultures, containing released cells was removed and saved for cell counting.

human tumour cell lines = assay: Cytotoxicity and cytomorphology of test substances, conclusions (cell line not given); conditions: Doxorubicin 0.2 mg/ml; HPBCD 5 mg/ml
Caenorhabditis elegans = assay: Life duration of Caenorhabditis elegans on NGM plates; assay type: in vivo
Protocol: ADAM QD/T, TiO2 aqueous nanodispersion used for researches on the animals, was sterile nanodispersion, of pharmaceutical class, in concentration 0.6 mg/ml. • 2. […] SBECD, Sulfobutylated beta-cyclodextrin sodium salt, Budapest, Hungary DEXOLVE® pharma grade (DS 6.5), powder in concentration 0.3 mg/ml. Protocol of researches and step-by-step methodology: • embryos were isolated (synchronization) • larvae of identical phase (L4) were placed on the standard NGM (nematode growth medium) […] plates in the Petri dishes. • all the animals were in the age from first up to ninth day of life and lived in a medium containing the above-listed components, after ninth day they were placed in standard […] without other additions as FUDR. • deaths of the animals were constantly registered as a time function • the curves of life duration were created on the basis of read indications. Composition of NGM plates (all the chemical compounds and reagents of analytical class); NaCl, agar, peptone, 5 mg/ml cholesterol in ethanol, non-autoclaved, 1 M K3PO4 buffer pH 6.0 (108.3 g KH2PO4, 35.6 g K2HPO4, H2O for 1 liter), 1M MgSO4, Petri dishes, peristaltic pump. The results present average of three parallel, independent definitions, research cycles of C. elegans.

Compound | Cytotoxicity [1] | Cytotoxicity (human tumour cell lines) | Number of living C. elegans (%) (Caenorhabditis elegans; life duration 10 days) | Number of living C. elegans (%) (Caenorhabditis elegans; life duration 13 days) | Number of living C. elegans (%) (Caenorhabditis elegans; life duration 14 days) | Number of living C. elegans (%) (Caenorhabditis elegans; life duration 15 days) | Number of living C. elegans (%) (Caenorhabditis elegans; life duration 18 days)
COc1cccc2c1C(=O)c1c(O)c3c(c(O)c1C2=O)C[C@@](O)(C(=O)CO)C[C@@H]3O[C@H]1C[C@H](N)[C@H](O)[C@H](C)O1 [Doxorubicin] | evident cytotoxicity; also recorded: significant cytotoxicity | moderate cytotoxicity |  |  |  |  | 
Sulfobutylated beta-cyclodextrin sodium salt [SBECD] |  |  | 90% | 41% | 20% | 7% | 0%

— US20240325419A1, “PHARMACEUTICAL COMPOSITION FOR RESTORING PHYSIOLOGICAL PROCESSES AND CELLS OF ORGANISM” (priority 2022, published 2024)
